Data on 1 sequence can be found in patent US7722863B2, “Use of granzyme b as an hsp70/hsp70 peptide dependent inducer of apoptosis in tumor cells” (Multimmune GmbH, priority 2002, dated 2010).

For one assay, the system named is NK cells. The experiment in a line: Intracellular granzyme B expression after stimulation with Hsp70-peptide TKD. Type of assay: cell-based, human. The protocol: The NK cell line YT was cultured at cell densities ranging from 0.1-0.5×10^6 cells/ml RPMI-1640 medium (Life Technologies, Eggenstein, Germany) containing 10% heat inactivated fetal calf serum (FCS, Life Technologies, Eggenstein, Germany) supplemented with 6 mM L-glutamine, and antibiotics (100 IU/ml penicillin and 100 μg/ml streptomycin; Life Technologies). Transient plastic adherent NK cells were derived from buffy coats of healthy human volunteers. Ficoll separated peripheral blood mononuclear cells (PBMC) were cultured in rIL-2 (100 IU/ml, Chiron, Frankfurt, Germany) for 12 h. […]
Cells (0.5×10^6) were fixed in paraformaldehyde (1% PFA in PBS) for 10 min, and permeabilized in PBS containing BSA (0.5%), NaN3 (0.1%), and saponin (0.1%). […] Following washing cells were analysed on a FACSCalibur instrument (Becton Dickinson, Heidelberg, Germany).
The physiological role of our findings was tested in functional assays using naive and Hsp70 stimulated human NK cells. […] Although Hsp70 acts as a tumor-selective recognition structure for NK cells, as determined by antibody blocking studies (Multhoff et. al. (1997) J. Immunol. 158,4341; Multhoff et. al. (1995) Blood 86,1374), the NK-cytotoxic mechanism remains unclear. […]

Another assay concerns CD3 positive T cells. The experiment in a line: Intracellular granzyme B expression after treatment with Hsp70-peptide TKD. The conditions noted are these: treated with Hsp70-peptide TKD. The assay is classed as cell-based, human. The protocol:
The physiological role of our findings was tested in functional assays using naive and Hsp70 stimulated human NK cells. […] Although Hsp70 acts as a tumor-selective recognition structure for NK cells, as determined by antibody blocking studies (Multhoff et. al. (1997) J. Immunol. 158,4341; Multhoff et. al. (1995) Blood 86,1374), the NK-cytotoxic mechanism remains unclear. To elucidate the possible mechanism, NK cells were incubated with Hsp70-peptide TKD ([…]) for 3 days. […] In contrast, granzyme B expression was not increased in CD3 positive T cells treated with Hsp70-peptide TKD. Light microscopical analysis of Hsp70-peptide activated NK cells co-incubated with Hsp70 membrane-positive CX+ and Hsp70 membrane-negative CX− cells is illustrated in FIG. 4A. Hsp70 membrane-positive CX+ and Hsp70 membrane-negative CX− tumor cells (0.1×10^6 cells/ml) were cultured in duplicates in 24 well plates for 2 days. […] CX+ and CX− tumor cells in the upper panel were cultured in the absence of NK cells; tumor cells in the lower panel were co-cultured for 12 h with NK cells that had been stimulated with Hsp70-peptide TKD (2 μg/ml, 3 days). Nearly 100% of the CX+ cell colonies were found in clusters with NK cells and viability of CX+ tumor cells appears to be reduced. […]

A further assay relates to CX+ tumor target cells. Nature of the assay: 12 h 51Cr release assay, NK cell mediated cytotoxicity. The conditions noted are these: E:T ratios 2:1 to 20:1; TKD 3 days. Type of assay: cell-based, human. Here is the method: (§1) The NK cell line YT was cultured at cell densities ranging from 0.1-0.5×10^6 cells/ml RPMI-1640 medium (Life Technologies, Eggenstein, Germany) containing 10% heat inactivated fetal calf serum (FCS, Life Technologies, Eggenstein, Germany) supplemented with 6 mM L-glutamine, and antibiotics (100 IU/ml penicillin and 100 μg/ml streptomycin; Life Technologies). Transient plastic adherent NK cells were derived from buffy coats of healthy human volunteers. Ficoll separated peripheral blood mononuclear cells (PBMC) were cultured in rIL-2 (100 IU/ml, Chiron, Frankfurt, Germany) for 12 h. Following adherence selection of monocyte depleted peripheral blood lymphocytes according to a modified method of Vujanovic (Vujanovic et. al. (1993) Cell. Immunol. 151, 133), cells were cultivated in RPMI-1640 medium supplemented with Hsp70-peptide TKD (2 μg/ml) for 3 days. The human tumor sublines CX+/CX− and Colo+/Colo− were derived by cell sorting of CX-2 colon (Hsp70 positive: 60%) and Colo357 pancreas (Hsp70 positive: 70%) carcinoma cell lines using the Hsp70 specific monoclonal antibody C92F3B1, according to a previously described protocol (Multhoff et. al. (1997) J. Immunol. 158, 4341).
(§2) NK cell mediated cytotoxicity was measured using a 12 h ^51Cr radioisotope assay. As target cells the colon carcinoma sublines CX+ and CX− were used. For blocking studies the mAb C92F3B1 and an isotype matched control antibody (IgG1) were used at a final concentration of 5 μg/1×10^6 cells. Following incubation of CX+ and CX− target cells with the antibodies for 30 min at 4° C., the cells were labeled with ^51Cr and the cytotoxicity assay was performed as described by MacDonald (MacDonald et. al. (1974) J. Exp. Med. 140,718). The percentage of specific lysis was calculated as: [(experimental release−spontaneous release)/(maximal release−spontaneous release)]×100.
(§3) Cell kill of CX+/CX− and Colo+/Colo− tumor cells following contact with freshly isolated, unstimulated (NK d0) or Hsp70-peptide TKD stimulated NK cells (NK d3) was quantitated in a 12 h ^51Cr release assay (FIG. 4B). […] Technically, it is not possible to quantify the absolute amount of granzyme B that is transferred from NK cells into tumor cells by cell-to-cell contact. However, relative values of granzyme B release could be determined by ELISPOT analysis. Therefore, a comparison of the cytolytic response of freshly isolated, unstimulated (NK d0) and TKD-stimulated NK cells (NK d3) against CX+/CX− and Colo+/Colo− tumor cells was performed concomitantly with the definition of the granzyme B release. […] At an E:T ratio of 5:1, the number of granzyme B spots, as determined in three independent experiments, was as follows: CX+ 260±20, CX− 165±6; Colo+ 137±55; Colo− 66±8. […]

In the next assay the test system is CX− tumor target cells. The description is as above. Type of assay: cell-based, human. Conditions: TKD 3 days. The protocol:
as §1, §2, §3

The test system of another assay is Colo+ tumor target cells. Described as above. The assay is classed as cell-based, human. Conditions: E:T ratios 2:1 to 20:1; TKD 3 days. The protocol:
as §1, §2, §3

In a further assay the test system is Colo− tumor target cells. The assay is described as above. The conditions noted are these: TKD 3 days. Type of assay: cell-based, human. The protocol: as §1, §2, §3
For another assay, the system named is CX+ tumor cells. The experiment in a line: Granzyme B ELISPOT, NK cells co-incubated with tumor cells. The assay is classed as cell-based, human. The conditions noted are these: TKD-stimulated NK cells (NK d3), 4 h coincubation, E:T 5:1, three independent experiments. The protocol: (§4) Granzyme B release was compared in unstimualted NK cells (NK d0) and TKD stimulated NK cells (NK d3) after a 4 h co-incubation period with tumor cell lines CX+/CX− and Colo+/Colo−, at different effector to target cell ratios (E:T) ranging from 20:1 to 2:1. For detection a Granzyme B ELISPOT kit (#552572, BD, Heidelberg, Germany) was used. Briefly, 96-well ELISPOT plates (MAIPN45, Millipore) were coated overnight at 4° C. with capture antibody, blocked with RPMI-1640 culture medium containing 10% FCS and incubated with tumor and effector cells for 4 h at 37° C., as specified before. After washing in deionized water and wash buffers A and B, biotinylated anti-granzyme B antibody was added (2 μg/ml) for 2 h. After another two washing steps granzyme B was visualized by the addition of freshly prepared avidin-horseradish peroxidase (2 h) and substrate solution (25 min incubation period). Spots were counted automatically using ImmunoSpot Series I Analyzer. ^51Cr Release Assay and Inhibition Assay
(§5) Cell kill of CX+/CX− and Colo+/Colo− tumor cells following contact with freshly isolated, unstimulated (NK d0) or Hsp70-peptide TKD stimulated NK cells (NK d3) was quantitated in a 12 h ^51Cr release assay (FIG. 4B). […] Technically, it is not possible to quantify the absolute amount of granzyme B that is transferred from NK cells into tumor cells by cell-to-cell contact. However, relative values of granzyme B release could be determined by ELISPOT analysis. Therefore, a comparison of the cytolytic response of freshly isolated, unstimulated (NK d0) and TKD-stimulated NK cells (NK d3) against CX+/CX− and Colo+/Colo− tumor cells was performed concomitantly with the definition of the granzyme B release. Irrespectively of the tumor cell line and the E:T cell ratio, co-incubation of tumor cells with unstimulated NK cells (NK d0), always results in very low granzyme B release; the number of spots was always less than 20. […] At an E:T ratio of 5:1, the number of granzyme B spots, as determined in three independent experiments, was as follows: CX+ 260±20, CX− 165±6; Colo+ 137±55; Colo− 66±8. […] It was hypothesized that interaction of granzyme B with membrane-bound Hsp70-peptide TKD is key for its uptake into tumor cells and for the induction of apoptosis. When NK cells were removed by washing with PBS and the tumor cells were stained with DAPI. […] Identical results were obtained with Annexin V-FITC staining (data not shown).

For another assay, the system named is CX− tumor cells. The description is as above. Type of assay: cell-based, human. The conditions noted are these: TKD-stimulated NK cells (NK d3), 4 h coincubation, E:T 5:1, three independent experiments. The protocol: as §4, §5
A further assay relates to Colo+ tumor cells. Described as above. Type of assay: cell-based, human. Conditions: TKD-stimulated NK cells (NK d3), 4 h coincubation, E:T 5:1, three independent experiments. The protocol: as §4, §5
A further assay relates to Colo− tumor cells. Described as above. Type of assay: cell-based, human. The conditions noted are these: TKD-stimulated NK cells (NK d3), 4 h coincubation, E:T 5:1, three independent experiments. Here is the method:
as §4, §5

Assay [1] relates to Hsp70 membrane-negative CX− cells. The experiment in a line: Microscopy of tumor cells co-incubated with Hsp70-peptide TKD stimulated NK cells. Type of assay: cell-based, human. The protocol:
(§6) FIG. 4A: Light microscopy (magnification 20×) of Hsp70 membrane-positive CX+ and Hsp70 membrane-negative CX− cell colonies, either untreated (control) or following a 12 h co-incubation with Hsp70-peptide TKD stimulated NK cells (+NK). The effector to target cell ratio (E:T) was 20:1.
(§7) The physiological role of our findings was tested in functional assays using naive and Hsp70 stimulated human NK cells. […] Although Hsp70 acts as a tumor-selective recognition structure for NK cells, as determined by antibody blocking studies (Multhoff et. al. (1997) J. Immunol. 158,4341; Multhoff et. al. (1995) Blood 86,1374), the NK-cytotoxic mechanism remains unclear. To elucidate the possible mechanism, NK cells were incubated with Hsp70-peptide TKD ([…]) for 3 days. […] In contrast, granzyme B expression was not increased in CD3 positive T cells treated with Hsp70-peptide TKD. Light microscopical analysis of Hsp70-peptide activated NK cells co-incubated with Hsp70 membrane-positive CX+ and Hsp70 membrane-negative CX− cells is illustrated in FIG. 4A. Hsp70 membrane-positive CX+ and Hsp70 membrane-negative CX− tumor cells (0.1×10^6 cells/ml) were cultured in duplicates in 24 well plates for 2 days. […] CX+ and CX− tumor cells in the upper panel were cultured in the absence of NK cells; tumor cells in the lower panel were co-cultured for 12 h with NK cells that had been stimulated with Hsp70-peptide TKD (2 μg/ml, 3 days). Nearly 100% of the CX+ cell colonies were found in clusters with NK cells and viability of CX+ tumor cells appears to be reduced. […] Cell viability of CX− tumor cells following contact with NK cells appears to be less affected, as compared to that of CX+ tumor cells. The inserts in the lower right corner of each graph illustrates a 2.5× magnification of one representative cell colony.
as §3

In assay [2] the test system is Hsp70 membrane-positive CX+ cells. Described as above. The assay is classed as cell-based, human. The protocol:
as §6, §7, §3

The subject of assay [3] is Hsp70 membrane-positive tumor target cells. Conditions: Hsp70-peptide 0.2-2.0 μg/ml; cited from earlier work.
The mark [4] stands for this setting: 12 h co-culture with NK cells stimulated with TKD 2 μg/ml, 3 days, E:T 20:1.

As for “TKDNNLLGRFELSG (listed as Homo sapiens) [Hsp70-peptide TKD]”, the “intracellular granzyme B levels, TKD stimulated NK cells (NK d3) versus naive NK cells (NK d0)” value in the assay with NK cells (Hsp70-peptide TKD 2 μg/ml, 3 days) was 1.4 fold. Besides, the “intracellular granzyme B expression in NK cells” value in the assay on NK cells (Hsp70-peptide TKD for 3 days, 3 independent experiments) is reported as “significantly elevated”. The “granzyme B expression in CD3 positive T cells” value in the assay on CD3 positive T cells is reported as “not increased”. Moreover, the “lysis of CX+ cells, TKD stimulated (NK d3) versus naive NK cells (NK d0)” value with CX+ tumor target cells is reported as 1.5 fold. Also, the “lysis of CX− tumor cells, NK d3 versus NK d0” value in the assay on CX− tumor target cells was “remained unaffected”. Further, the “lysis of Colo+ cells, TKD stimulated (NK d3) versus naive NK cells (NK d0)” value in the assay on Colo+ tumor target cells is 2.0 fold. For the same sequence, in the assay on Colo− tumor target cells, the “lysis of Colo− tumor cells, NK d3 versus NK d0” value is given as “remained unaffected”. For the same sequence, the “number of granzyme B spots” value in the assay with CX+ tumor cells is on record as 260±20; in the assay with CX− tumor cells, 165±6; in the assay with Colo+ tumor cells it was 137±55; in the assay with Colo− tumor cells, 66±8. Besides, the “CX− tumor cells in clusters with NK cells” value in assay [1] (setting [4]) is recorded as “not found in clusters”. Besides, the “DNA fragmentation (DAPI) in CX− cells after co-incubation with TKD activated NK cells” value in assay [1] (NK cells removed by washing) is “not”. The “CX+ cell colonies found in clusters with NK cells” value in [2] (setting [4]) is listed as ~100%. Besides, in assay [2] (NK cells removed by washing), the “DNA fragmentation (DAPI) in CX+ cells after co-incubation with TKD activated NK cells” value was “showed DNA fragmentation”. In assay [3], the “cytolytic activity of NK cells against Hsp70 membrane-positive tumor target cells” value is recorded as “increased cytolytic activity”.
